Results taken from patent US20240124483A1, “Methods for the Treatment of Fibrotic Disease” (SHY Therapeutics, LLC, priority 2021, published 2024).
Like-named read-outs stand apart in the source and are kept apart here.

Tests used:
[1] = test system: JNK; experiment: JNK Activation Assay in Panc-1 (western blot); assay type: cell-based, Human; design: key: Y = yes; N = No; details: at 10 μM
Summary of the method: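 Cells were serum-starved overnight in 0.5% FBS, then given compound (10 μM single dose or serial dilutions, 0.3% DMSO) for 3 h at 37 °C. TGF-b1 at 10 ng/ml followed, 1 h for Panc-1 and 20 min for C2C12. Phospho-JNK (Thr183/Tyr185) was read by western blot of lysates.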

[2] = test system: MAPK p38; experiment: MAPK p38 Activation Assay in Panc-1 (western blot); assay type: cell-based, Human; design: key: Y = yes; N = No; details: at 10 μM
Summary of the method: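 Cells serum-starved overnight in 0.5% FBS, then compound 3 h at 37° C (10 μM or serial dilutions for IC50; 0.3% DMSO). TGF-b1 10 ng/ml stimulation followed: 1 h for Panc-1, 20 min for C2C12. Phospho-p38 (Thr180/Tyr182) measured by western blot of lysates.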

[3] = molecular target: KRas wild type (Homo sapiens (Human), UniProt P01116); experiment: Ras GTP Binding Domain Inhibition Assay, KRas wild type
Chain of KRas wild type (P01116 other isoform, or with tags, fused parts or gaps): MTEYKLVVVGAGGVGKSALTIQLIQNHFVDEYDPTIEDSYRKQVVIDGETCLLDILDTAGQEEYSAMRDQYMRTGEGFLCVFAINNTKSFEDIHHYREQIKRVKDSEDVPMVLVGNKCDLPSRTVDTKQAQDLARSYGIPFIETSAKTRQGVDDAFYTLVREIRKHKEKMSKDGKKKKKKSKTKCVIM
Summary of the method: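 Readout is fluorescence of Cy3-GTP or Cy5-GTP (100 nM final, 45 min, room temperature) still bound after washes to His-tagged KRas immobilised on nickel plates. Beforehand, compounds (20 μM final; serial dilutions for IC50) incubated 3 h with protein in 1% DMSO, with or without His-tagged Sos GEF added for the last hour.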

[4] = molecular target: Rac-1 (Homo sapiens (Human), UniProt P63000); experiment: Ras GTP Binding Domain Inhibition Assay, Rac-1; details: without SOS, read-out: Rac-1: % inh.
Summary of the method: (§1)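 Fluorescent GTP binding to plate-captured His-tagged Ras: compound 20 μM (or dilution series for IC50), 3 h RT, ±Sos GEF 10-30 μg/mL last hour; then 100 nM Cy3/Cy5-GTP 45 min RT, wash ×3, read bound label.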

[5] = molecular target: Rho-A (Homo sapiens (Human), UniProt P61586); experiment: Ras GTP Binding Domain Inhibition Assay, Rho-A; details: without SOS, read-out: Rho-A: % inh.
Chain of Rho-A (P61586 whole entry, species assumed, the tested form may be a part): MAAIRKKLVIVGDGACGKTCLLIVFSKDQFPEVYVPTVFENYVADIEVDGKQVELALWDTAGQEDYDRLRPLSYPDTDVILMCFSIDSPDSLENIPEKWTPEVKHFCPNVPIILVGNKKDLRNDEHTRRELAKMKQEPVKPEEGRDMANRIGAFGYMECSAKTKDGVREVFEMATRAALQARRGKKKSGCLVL
Summary of the method: as §1

[6] = + SOS, read-out: KRas wild type + SOS: % inh.
[7] = without SOS, read-out: KRas wild type: % inh.

Structure (SMILES)	Activation of JNK in PANC-1 [1]	Activation of MAPK p38 in PANC-1 [2]	inhibition at 20 µM [3, 6]	inhibition at 20 µM [3, 7]	inhibition at 20 µM [4]	inhibition at 20 µM [5]
COCCCOc1nc(-c2nccn2C)nc2sc(-c3ccn(C(C)C)n3)c(-c3ccccc3)c12 [Compound 37, 6-(1-Isopropyl-1H-pyrazol-3-yl)-4-(3-methoxypropoxy)-2-(1-methyl-1H-imidazol-2-yl)-5-phenylthieno[2,3-d]pyrimidine]	N	Y	1 to 25%	0%	0%	0%
COc1cccc(-c2sc3nc(-c4nccn4C)nc(N[C@H]4C[C@H](OC)C4)c3c2-c2ccccc2)c1F [Compound 40, 6-(2-Fluoro-3-methoxyphenyl)-N-((1r,3r)-3-methoxycyclobutyl)-2-(1-methyl-1H-imidazol-2-yl)-5-phenylthieno[2,3-d]pyrimidin-4-amine]	Y	Y	76 to 100%	46 to 75%	26 to 45%	26 to 45%
COc1cccc(-c2sc3nc(-c4nccn4C)nc(N[C@H]4C[C@H](OC)C4)c3c2C)c1F [Compound 42, 6-(2-Fluoro-3-methoxyphenyl)-N-((1r,3r)-3-methoxycyclobutyl)-5-methyl-2-(1-methyl-1H-imidazol-2-yl)thieno[2,3-d]pyrimidin-4-amine]	Y	Y	76 to 100%	76 to 100%	0%	46 to 75%
COc1nccc(-c2sc3nc(-c4nccn4C)nc(N[C@H]4C[C@H](OC)C4)c3c2-c2ccccc2)c1F [Compound 45, 6-(3-Fluoro-2-methoxypyridin-4-yl)-N-((1r,3r)-3-methoxycyclobutyl)-2-(1-methyl-1H-imidazol-2-yl)-5-phenylthieno[2,3-d]pyrimidin-4-amine]	Y	N	76 to 100%	46 to 75%	46 to 75%	46 to 75%
COc1cc(-c2sc3nc(-c4nccn4C)nc(N[C@H]4C[C@H](OC)C4)c3c2-c2ccccc2)ccn1 [Compound 46, N-((1r,3r)-3-Methoxycyclobutyl)-6-(2-methoxypyridin-4-yl)-2-(1-methyl-1H-imidazol-2-yl)-5-phenylthieno[2,3-d]pyrimidin-4-amine]	Y	N	76 to 100%	46 to 75%	46 to 75%	46 to 75%
